One block for each molecule: values may come before it. The source made the active and inactive calls.
Legend:
Troponin, cardiac muscle [1] = target: T1, Troponin, cardiac muscle (Homo sapiens, UniProt P19429+P45379+P63316); assay: Fluorescence-based biochemical high throughput dose response assay for activators of the calcium sensitivity of cardiac Regulated Thin Filaments (RTF). [Related pubchem assays (depositor defined):AID493008, AID493018, AID504382, AID504383]; format: protein-complex assay
Ephrin type-A receptor 4 = Ephrin type-A receptor 4 (Mus musculus, UniProt Q03137); assay: EphA4 ligand-binding antagonists – biochemical, colorimetric, mouse EphA4, primary screen (AID 689); format: functional
[2] = target: G-protein coupled receptor 55 (Homo sapiens, UniProt Q9Y2T6); assay: selective activators of receptor GPR55 – imaging, U2OS cells, beta-arrestin-GFP redistribution, primary screen (AID 1961); format: functional
[3] = HEK-293T viability loss after treatment – luminescence, T-cell screen hits, cytotoxicity control for TCR NF-kB inhibitor project, dose response (AID 489026); format: functional, cell-based;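 also: cells exposed to compound about 14 hours before the viability readout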
[4] = viability loss in Vero cells – cytotoxicity control for Vif-APOBEC3G degradation inhibitor project, dose response (AID 1117358); format: functional; conditions: Vero
J774.A1 = assay: Confirmation of image-based Screening Assay for Inhibitors of Phagocytosis. [Related pubchem assays (depositor defined):AID1029, AID1643]; format: functional, cell-based; conditions: Mus musculus
[5] = inhibition of ADAM10 peptide cleavage – biochemical, FRET peptide substrate, recombinant human ADAM10, selectivity assay for ADAM17 exosite inhibitor project, dose response (AID 743259);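 also: ADAM10 enzyme cleaving a FRET peptide substrate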
[6] = target: 1-phosphatidylinositol 4,5-bisphosphate phosphodiesterase beta-3 (Homo sapiens, UniProt Q01970); assay: Fluorescence-based biochemical high throughput dose response assay to identify inhibitors of phospholipase C isozymes (PLC-B3).
[7] = target: Disintegrin and metalloproteinase domain-containing protein 17 (Homo sapiens, UniProt P78536); assay: exosite inhibitors of ADAM17, dose response, biochemical (AID 743260)
[8] = target: T2, RNA-binding protein pos-1 (Caenorhabditis elegans, UniProt G5EF15); assay: disruptors of C. elegans POS-1 RNA interaction – biochemical, fluorescence polarization, dose response (AID 1964);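 also: purified POS-1 fused to maltose binding protein made in E. coli; potency of compounds blocking POS-1 binding to fluorescent RNA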
T2 sequence (G5EF15 whole entry): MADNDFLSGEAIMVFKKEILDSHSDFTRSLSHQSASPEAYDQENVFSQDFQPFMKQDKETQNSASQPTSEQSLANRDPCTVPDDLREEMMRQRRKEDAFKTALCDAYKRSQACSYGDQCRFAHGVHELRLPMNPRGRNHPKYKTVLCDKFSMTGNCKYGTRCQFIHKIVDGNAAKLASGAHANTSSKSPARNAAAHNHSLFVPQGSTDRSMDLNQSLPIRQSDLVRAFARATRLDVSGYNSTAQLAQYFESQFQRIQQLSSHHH

Troponin, cardiac muscle [9] = target: T1, Troponin, cardiac muscle; assay: compounds desensitizing RTF to calcium – biochemical, fluorescence, cardiac regulated thin filaments, triplicate IC50, dose response (AID 504742); format: protein-complex assay
[10] = target: T3, Zinc finger protein mex-5 (Caenorhabditis elegans, UniProt Q9XUB2); assay: potency of MEX-5 RNA-binding blockers – biochemical, C. elegans, fluorescence polarization, dose response (AID 1960)
T3 sequence (Q9XUB2 whole entry): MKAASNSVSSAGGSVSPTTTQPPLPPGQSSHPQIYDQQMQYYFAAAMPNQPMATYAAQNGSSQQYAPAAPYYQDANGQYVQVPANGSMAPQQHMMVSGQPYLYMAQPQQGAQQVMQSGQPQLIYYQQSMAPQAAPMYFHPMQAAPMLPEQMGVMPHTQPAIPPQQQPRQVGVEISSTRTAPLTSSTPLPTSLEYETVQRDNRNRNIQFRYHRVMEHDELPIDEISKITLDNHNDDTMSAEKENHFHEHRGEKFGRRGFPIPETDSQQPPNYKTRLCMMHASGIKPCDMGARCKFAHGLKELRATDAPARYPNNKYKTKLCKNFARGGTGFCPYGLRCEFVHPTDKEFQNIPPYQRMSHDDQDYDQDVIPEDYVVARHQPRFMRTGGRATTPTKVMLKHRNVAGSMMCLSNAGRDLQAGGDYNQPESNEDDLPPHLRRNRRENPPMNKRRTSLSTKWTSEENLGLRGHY

[11] = target: Tyrosyl-DNA phosphodiesterase 2 (Homo sapiens, UniProt O95551); assay: potency against TDP2 phosphodiesterase activity – biochemical, epi absorbance, IC50, dose response (AID 743297)
[12] = target: 1-phosphatidylinositol 4,5-bisphosphate phosphodiesterase gamma-1 (Homo sapiens, UniProt P19174); assay: Counterscreen for inhibitors of phospholipase C isozymes (PLC-B3): Fluorescence-based biochemical high throughput dose response assay to identify inhibitors of phospholipase C isozymes (PLC-gamma1).
Mu-type opioid receptor = Mu-type opioid receptor (Homo sapiens, UniProt P35372); assay: SAR Analysis of Antagonists of the MOR Receptor using an Image-Based Assay - Set 3. [Related pubchem assays (depositor defined):AID1777, AID1785, AID1786, AID1966, AID2133, AID2136, AID2284, AID2285, AID2420]; format: functional
[13] = target: Delta-type opioid receptor (Homo sapiens, UniProt P41143); assay: SAR Analysis of Antagonists of the DOR Receptor using an Image-Based Assay - Set 3. [Related pubchem assays (depositor defined):AID1777, AID1785]; format: functional;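 also: U2OS cells expressing DOR1 and beta-arrestin GFP stimulated with 100 nM SNC80; imaging of GFP-tagged beta-arrestin moving into spots after receptor activation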
[14] = target: T4, Kappa-type opioid receptor (Homo sapiens, UniProt P41145); assay: SAR analysis of Antagonists of the Kappa Opioid Receptor (KOR) using an Image-Based Assay - Set 4. [Related pubchem assays (depositor defined):AID1777, AID1785]; format: functional
[15] = target: T4, Kappa-type opioid receptor; assay: SAR analysis of small molecule antagonists of the kappa opioid receptor via a luminescent beta-arrestin assay - Set 3. [Related pubchem assays (depositor defined):AID1777, AID1778, AID1785, AID1786, AID1966, AID2133, AID2136, AID2285, AID2495]; format: functional

T4 sequence (P41145 whole entry): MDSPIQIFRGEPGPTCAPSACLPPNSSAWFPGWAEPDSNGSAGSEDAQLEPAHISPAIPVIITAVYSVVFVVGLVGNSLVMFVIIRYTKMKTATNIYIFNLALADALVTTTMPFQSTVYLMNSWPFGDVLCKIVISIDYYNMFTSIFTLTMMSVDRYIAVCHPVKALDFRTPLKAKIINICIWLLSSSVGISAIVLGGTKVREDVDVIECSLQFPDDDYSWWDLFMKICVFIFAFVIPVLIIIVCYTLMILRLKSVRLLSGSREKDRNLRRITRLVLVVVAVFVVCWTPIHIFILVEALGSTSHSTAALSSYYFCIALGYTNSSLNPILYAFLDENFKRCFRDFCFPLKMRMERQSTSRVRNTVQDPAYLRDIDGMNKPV
G-protein coupled receptor 55, sequence (Q9Y2T6 whole entry): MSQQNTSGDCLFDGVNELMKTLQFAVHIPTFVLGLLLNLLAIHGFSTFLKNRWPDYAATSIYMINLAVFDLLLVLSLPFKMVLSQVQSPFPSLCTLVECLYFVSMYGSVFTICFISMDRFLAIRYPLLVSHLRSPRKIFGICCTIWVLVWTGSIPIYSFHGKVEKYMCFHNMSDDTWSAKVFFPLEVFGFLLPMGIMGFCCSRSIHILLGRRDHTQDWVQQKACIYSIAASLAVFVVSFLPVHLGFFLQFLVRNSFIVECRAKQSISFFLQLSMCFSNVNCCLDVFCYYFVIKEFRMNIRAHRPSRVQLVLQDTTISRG
Disintegrin and metalloproteinase domain-containing protein 17, sequence (P78536 whole entry, the tested form may be a part): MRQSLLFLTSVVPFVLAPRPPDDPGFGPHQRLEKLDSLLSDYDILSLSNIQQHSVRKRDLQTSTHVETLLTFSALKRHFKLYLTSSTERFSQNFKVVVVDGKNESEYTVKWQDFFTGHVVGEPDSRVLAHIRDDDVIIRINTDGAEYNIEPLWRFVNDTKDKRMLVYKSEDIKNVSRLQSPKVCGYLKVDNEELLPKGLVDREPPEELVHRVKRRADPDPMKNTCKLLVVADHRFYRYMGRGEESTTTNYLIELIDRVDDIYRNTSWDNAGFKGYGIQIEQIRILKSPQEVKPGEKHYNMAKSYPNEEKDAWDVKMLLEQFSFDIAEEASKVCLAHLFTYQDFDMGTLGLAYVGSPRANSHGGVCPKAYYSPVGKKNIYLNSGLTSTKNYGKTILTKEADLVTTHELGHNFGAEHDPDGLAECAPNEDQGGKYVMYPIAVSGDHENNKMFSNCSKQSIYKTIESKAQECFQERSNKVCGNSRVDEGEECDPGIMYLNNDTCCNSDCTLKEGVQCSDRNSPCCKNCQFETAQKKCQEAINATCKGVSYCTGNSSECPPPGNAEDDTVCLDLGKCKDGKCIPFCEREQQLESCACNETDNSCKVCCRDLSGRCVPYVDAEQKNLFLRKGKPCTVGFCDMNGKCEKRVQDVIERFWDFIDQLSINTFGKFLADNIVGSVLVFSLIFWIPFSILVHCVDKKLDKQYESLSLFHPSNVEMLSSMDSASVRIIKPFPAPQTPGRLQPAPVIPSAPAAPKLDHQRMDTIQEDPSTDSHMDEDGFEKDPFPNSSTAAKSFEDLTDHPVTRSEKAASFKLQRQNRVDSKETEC
1-phosphatidylinositol 4,5-bisphosphate phosphodiesterase gamma-1, sequence (P19174 whole entry): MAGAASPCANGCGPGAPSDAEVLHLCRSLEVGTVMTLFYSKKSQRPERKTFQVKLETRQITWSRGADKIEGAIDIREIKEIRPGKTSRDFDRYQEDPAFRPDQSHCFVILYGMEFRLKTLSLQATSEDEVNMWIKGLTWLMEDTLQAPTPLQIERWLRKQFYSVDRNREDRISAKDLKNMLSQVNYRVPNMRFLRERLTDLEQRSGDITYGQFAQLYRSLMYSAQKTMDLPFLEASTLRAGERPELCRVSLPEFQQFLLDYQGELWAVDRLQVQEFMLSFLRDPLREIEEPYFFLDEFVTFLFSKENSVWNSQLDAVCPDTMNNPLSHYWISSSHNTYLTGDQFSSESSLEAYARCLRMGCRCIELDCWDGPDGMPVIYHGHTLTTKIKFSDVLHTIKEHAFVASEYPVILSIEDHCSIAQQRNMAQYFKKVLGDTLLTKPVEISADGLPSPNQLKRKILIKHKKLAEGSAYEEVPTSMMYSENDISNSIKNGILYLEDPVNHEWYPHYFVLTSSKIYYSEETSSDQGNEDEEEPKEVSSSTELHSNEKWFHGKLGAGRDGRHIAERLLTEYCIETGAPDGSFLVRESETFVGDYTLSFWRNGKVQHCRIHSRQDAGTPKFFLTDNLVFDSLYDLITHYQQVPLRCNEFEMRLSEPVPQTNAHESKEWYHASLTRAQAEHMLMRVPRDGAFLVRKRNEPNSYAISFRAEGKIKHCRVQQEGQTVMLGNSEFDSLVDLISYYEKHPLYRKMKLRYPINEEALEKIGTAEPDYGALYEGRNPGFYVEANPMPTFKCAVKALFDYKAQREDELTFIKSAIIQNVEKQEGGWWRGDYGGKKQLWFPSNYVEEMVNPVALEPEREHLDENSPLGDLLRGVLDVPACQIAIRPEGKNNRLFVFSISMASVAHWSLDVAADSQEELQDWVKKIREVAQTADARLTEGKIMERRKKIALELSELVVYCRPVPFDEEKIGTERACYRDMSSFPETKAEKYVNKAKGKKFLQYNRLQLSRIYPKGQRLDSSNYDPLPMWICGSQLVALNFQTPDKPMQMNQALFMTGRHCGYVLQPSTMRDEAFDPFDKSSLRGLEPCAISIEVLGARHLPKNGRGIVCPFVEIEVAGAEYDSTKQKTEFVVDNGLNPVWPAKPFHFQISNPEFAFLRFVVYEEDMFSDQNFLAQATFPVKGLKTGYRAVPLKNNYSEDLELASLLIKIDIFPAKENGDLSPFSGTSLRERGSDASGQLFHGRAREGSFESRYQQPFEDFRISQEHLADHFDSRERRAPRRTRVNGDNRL
Ephrin type-A receptor 4, sequence (Q03137 whole entry): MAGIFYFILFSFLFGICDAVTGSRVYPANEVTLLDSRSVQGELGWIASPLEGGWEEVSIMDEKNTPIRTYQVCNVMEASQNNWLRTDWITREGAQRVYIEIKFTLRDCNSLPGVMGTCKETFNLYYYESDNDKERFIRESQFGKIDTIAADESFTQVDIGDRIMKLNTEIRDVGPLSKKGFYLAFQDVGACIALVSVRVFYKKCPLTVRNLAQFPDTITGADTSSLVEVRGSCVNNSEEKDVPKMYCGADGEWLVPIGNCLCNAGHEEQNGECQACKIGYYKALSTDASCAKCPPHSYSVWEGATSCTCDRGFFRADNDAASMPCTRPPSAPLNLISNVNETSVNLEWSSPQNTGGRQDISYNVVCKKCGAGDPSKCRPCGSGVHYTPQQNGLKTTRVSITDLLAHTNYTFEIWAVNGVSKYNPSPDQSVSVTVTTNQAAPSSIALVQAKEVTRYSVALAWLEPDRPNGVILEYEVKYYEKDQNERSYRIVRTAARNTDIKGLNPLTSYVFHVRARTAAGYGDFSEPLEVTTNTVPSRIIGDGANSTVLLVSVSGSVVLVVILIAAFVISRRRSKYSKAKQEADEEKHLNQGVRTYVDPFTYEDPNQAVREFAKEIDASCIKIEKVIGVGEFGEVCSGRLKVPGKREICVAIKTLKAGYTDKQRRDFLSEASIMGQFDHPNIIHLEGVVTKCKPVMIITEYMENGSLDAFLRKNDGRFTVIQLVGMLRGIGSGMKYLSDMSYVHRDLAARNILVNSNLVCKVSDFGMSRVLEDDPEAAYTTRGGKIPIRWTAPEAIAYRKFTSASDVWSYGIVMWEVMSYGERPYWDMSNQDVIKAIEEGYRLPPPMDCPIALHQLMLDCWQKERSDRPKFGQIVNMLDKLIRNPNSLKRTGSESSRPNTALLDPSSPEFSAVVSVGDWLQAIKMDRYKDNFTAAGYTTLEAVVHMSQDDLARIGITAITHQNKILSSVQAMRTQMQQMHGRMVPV
Tyrosyl-DNA phosphodiesterase 2, sequence (O95551 whole entry): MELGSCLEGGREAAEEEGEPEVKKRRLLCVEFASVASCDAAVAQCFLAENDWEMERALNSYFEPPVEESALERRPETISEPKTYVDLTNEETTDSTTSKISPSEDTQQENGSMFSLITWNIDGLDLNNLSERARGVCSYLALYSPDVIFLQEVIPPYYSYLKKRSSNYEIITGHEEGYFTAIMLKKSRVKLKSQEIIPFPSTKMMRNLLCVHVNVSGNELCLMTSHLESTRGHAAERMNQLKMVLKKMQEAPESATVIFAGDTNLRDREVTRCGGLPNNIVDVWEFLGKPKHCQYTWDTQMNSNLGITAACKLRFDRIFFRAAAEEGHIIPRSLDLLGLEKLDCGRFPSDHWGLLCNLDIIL
Delta-type opioid receptor, sequence (P41143 whole entry): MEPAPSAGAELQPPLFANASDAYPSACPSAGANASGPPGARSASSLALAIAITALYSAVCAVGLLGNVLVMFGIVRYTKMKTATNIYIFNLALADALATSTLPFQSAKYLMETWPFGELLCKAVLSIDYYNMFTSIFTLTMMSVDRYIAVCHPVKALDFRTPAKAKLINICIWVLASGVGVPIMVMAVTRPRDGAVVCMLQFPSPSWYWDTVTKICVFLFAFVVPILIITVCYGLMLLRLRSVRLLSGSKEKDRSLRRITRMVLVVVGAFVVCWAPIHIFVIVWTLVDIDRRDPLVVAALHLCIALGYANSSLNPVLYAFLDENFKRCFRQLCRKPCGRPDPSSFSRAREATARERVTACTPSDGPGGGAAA
Mu-type opioid receptor, sequence (P35372 whole entry): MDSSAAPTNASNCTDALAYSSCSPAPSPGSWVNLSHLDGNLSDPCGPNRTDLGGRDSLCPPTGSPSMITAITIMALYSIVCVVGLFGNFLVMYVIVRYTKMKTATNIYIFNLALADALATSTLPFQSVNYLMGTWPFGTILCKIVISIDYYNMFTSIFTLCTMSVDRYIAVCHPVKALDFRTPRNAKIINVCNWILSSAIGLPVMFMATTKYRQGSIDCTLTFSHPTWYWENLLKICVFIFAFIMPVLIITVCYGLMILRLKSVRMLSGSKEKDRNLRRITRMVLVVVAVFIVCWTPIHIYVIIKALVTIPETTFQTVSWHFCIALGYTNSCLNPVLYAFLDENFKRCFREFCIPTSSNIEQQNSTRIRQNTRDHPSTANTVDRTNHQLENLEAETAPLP

IC50 (Ephrin type-A receptor 4): 5.34 µM (active)
EC50 [2]: 0.731 µM (active)
Structure (SMILES): CCCCN1C(=O)/C(=C/C=C2\N(C)c3ccccc3C2(C)C)SC1=S

IC50 (Mu-type opioid receptor): > 32 µM (inactive)
IC50 [13]: > 32 µM (inactive)
IC50 [14]: 0.776 µM (active)
IC50 [15]: 4.23 µM (active)
Structure (SMILES): O=C(Cn1c(=O)c2cccn2c2cccnc21)NCCCN1CCN(c2ccc3c(c2)OCO3)CC1

Further lines, the molecule ahead of its results:

Structure (SMILES): Cc1nnc(SCC(=O)NC(C)(C)C)n1C1CCCCC1
EC50 (Troponin, cardiac muscle [1]): > 71.5 µM (inactive)

Structure (SMILES): COc1ccc(C2=NOC(C(=O)NCc3cccs3)C2)cc1OC (stereo not drawn)
IC50 [3]: > 80 µM (inactive)
CC50 [4]: > 40 µM (active)
IC50 (J774.A1): 0.609 µM (active)

Structure (SMILES): O=C(O)c1cc(O)c2c(c1)[C@H]([C@H]1c3cc(C(=O)O)cc(O)c3C(=O)c3c(O[C@@H]4O[C@H](CO)[C@@H](O)[C@H](O)[C@H]4O)cccc31)c1cccc(OC3O[C@H](CO)[C@@H](O)[C@H](O)[C@H]3O)c1C2=O (stereo partly drawn)
IC50 [5]: > 23.2 µM (inactive)
IC50 [6]: 109 µM (inactive)
IC50 [7]: 30.4 µM (inactive)
EC50 [8]: > 300 µM (not active)
IC50 (Troponin, cardiac muscle [9]): 2.72 µM (active)
EC50 [10]: 7.25 µM (active)
IC50 [11]: > 128 µM (inactive)
IC50 [12]: 18.8 µM (inactive)
